For 25 compounds, IC50 and melting point results are on record in patent US8685992B2, “Histone deacetylase inhibitors based simultaneously on trisubstituted 1H-pyrroles and aromatic and heteroaromatic spacers” (Universidad del País Vasco, priority 2009, dated 2014).

Data set [1] has as its target histone deacetylase from rat liver. As to the kind of experiment: Rat liver HDAC assay. It is filed as biochemical. To be noted: Boc-Lys(Ac)-AMC substrate, 30° C., 2 h, read-out: IC50 (nM) of enzyme activity Rat liver.
The target in a further data set is Human HDAC2 (Homo sapiens (Human), UniProt Q92769). As to the kind of experiment: HDAC2 fluorogenic peptide deacetylation assay. Type of data set: biochemical. The note with it: human HDAC2, 50 μM substrate, 30° C., 2 h; read-out: IC50 (nM) of enzyme activity HDAC2.
Another data set addresses Human HDAC3/NcoR2 (Homo sapiens (Human), UniProt O15379). Kind of data set: HDAC3 fluorogenic peptide deacetylation assay. Type of data set: biochemical. The note with it: human HDAC3/NcoR2, 50 μM substrate, 30° C., 2 h; read-out: IC50 (nM) of enzyme activity HDAC3.
The next data set deals with Human HDAC8 (Homo sapiens (Human), UniProt Q9BY41). Kind of data set: HDAC8 fluorogenic peptide deacetylation assay. The note with it: human HDAC8, 50 μM substrate, 30° C., 2 h; read-out: IC50 (nM) of enzyme activity HDAC8. Type of data set: biochemical.
The next data set has as its target Human HDAC1 (Homo sapiens (Human), UniProt Q13547). Kind of data set: HDAC1 fluorogenic peptide deacetylation assay. It is filed as biochemical. To be noted: human HDAC1, 50 μM substrate, 30° C., 2 h; read-out: IC50 (nM) of enzyme activity HDAC1.
Data set [2] concerns Nuclear Extract from HeLa Cells. As to the kind of experiment: HeLa Nuclear Extract HDAC assay. Type of data set: biochemical, human. The note with it: 50 μM substrate, 30° C., 2 h, read-out: IC50 (nM) of enzyme activity HeLa.
A further data set has as its target Human HDAC6 (Homo sapiens (Human), UniProt Q9UBN7). As to the kind of experiment: HDAC6 fluorogenic peptide deacetylation assay. Type of data set: biochemical. To be noted: human HDAC6, 50 μM substrate, 30° C., 2 h; read-out: IC50 (nM) of enzyme activity HDAC6.

In general, IC50 refers to the concentration that gives 50% inhibition. By melting point is commonly meant the temperature of the solid-liquid transition.

Human HDAC6, sequence (Q9UBN7 whole entry): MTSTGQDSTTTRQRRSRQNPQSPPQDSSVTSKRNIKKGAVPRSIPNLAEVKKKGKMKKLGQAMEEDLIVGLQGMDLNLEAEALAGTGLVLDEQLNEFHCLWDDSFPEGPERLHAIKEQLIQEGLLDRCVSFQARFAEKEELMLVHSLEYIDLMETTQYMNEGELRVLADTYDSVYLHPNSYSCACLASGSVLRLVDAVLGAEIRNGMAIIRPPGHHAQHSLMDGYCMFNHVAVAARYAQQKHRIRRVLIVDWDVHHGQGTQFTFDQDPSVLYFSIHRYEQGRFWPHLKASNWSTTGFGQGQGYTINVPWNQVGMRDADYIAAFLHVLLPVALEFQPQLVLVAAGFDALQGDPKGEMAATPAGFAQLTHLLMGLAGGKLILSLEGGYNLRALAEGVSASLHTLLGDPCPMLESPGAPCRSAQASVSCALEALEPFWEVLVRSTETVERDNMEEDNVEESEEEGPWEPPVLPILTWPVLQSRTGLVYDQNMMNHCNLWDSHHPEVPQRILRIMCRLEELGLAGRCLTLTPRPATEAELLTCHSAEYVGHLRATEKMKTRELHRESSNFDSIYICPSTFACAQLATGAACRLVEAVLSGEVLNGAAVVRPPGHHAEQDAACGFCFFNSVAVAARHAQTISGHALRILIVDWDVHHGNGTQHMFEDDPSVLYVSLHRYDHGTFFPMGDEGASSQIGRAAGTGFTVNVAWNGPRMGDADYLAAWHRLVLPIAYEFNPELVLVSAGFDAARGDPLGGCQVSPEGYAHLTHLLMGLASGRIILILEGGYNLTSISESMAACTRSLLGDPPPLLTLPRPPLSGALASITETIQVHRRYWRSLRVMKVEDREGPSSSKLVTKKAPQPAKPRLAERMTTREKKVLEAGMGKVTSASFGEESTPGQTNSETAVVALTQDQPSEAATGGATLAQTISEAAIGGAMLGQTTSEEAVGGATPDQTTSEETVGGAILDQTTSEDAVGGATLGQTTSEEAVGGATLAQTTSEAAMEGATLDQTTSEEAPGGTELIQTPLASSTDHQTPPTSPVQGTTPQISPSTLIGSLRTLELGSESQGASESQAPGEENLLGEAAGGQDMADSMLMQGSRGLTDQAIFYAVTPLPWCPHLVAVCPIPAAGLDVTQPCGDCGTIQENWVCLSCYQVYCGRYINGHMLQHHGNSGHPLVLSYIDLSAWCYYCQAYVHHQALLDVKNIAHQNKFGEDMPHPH
Human HDAC8, sequence (Q9BY41 whole entry): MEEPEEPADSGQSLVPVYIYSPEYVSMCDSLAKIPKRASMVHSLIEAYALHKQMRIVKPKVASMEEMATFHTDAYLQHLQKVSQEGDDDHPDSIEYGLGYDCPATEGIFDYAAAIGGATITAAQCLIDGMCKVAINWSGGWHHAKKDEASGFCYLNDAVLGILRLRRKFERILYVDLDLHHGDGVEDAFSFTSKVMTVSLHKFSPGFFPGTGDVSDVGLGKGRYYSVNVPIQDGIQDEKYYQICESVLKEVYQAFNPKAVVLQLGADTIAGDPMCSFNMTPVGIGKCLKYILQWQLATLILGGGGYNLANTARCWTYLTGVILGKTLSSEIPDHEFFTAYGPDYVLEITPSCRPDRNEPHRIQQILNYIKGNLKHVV
Human HDAC3/NcoR2, sequence (O15379 whole entry): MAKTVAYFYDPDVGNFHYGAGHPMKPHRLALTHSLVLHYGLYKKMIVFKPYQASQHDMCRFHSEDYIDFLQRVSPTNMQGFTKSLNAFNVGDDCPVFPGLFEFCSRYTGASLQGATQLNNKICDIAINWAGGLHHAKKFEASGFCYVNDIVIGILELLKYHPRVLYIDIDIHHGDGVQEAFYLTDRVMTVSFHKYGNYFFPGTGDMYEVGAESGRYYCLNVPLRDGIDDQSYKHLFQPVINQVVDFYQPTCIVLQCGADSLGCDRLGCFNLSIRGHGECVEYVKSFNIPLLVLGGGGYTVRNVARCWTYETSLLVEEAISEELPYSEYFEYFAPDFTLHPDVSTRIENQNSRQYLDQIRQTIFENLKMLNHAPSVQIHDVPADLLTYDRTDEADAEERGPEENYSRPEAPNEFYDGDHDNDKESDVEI
Human HDAC3/NcoR2, sequence (Q9Y618 395-489 partner): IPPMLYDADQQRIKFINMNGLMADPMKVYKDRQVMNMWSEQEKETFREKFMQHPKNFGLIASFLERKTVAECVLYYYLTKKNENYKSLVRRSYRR
Human HDAC1, sequence (Q13547 whole entry): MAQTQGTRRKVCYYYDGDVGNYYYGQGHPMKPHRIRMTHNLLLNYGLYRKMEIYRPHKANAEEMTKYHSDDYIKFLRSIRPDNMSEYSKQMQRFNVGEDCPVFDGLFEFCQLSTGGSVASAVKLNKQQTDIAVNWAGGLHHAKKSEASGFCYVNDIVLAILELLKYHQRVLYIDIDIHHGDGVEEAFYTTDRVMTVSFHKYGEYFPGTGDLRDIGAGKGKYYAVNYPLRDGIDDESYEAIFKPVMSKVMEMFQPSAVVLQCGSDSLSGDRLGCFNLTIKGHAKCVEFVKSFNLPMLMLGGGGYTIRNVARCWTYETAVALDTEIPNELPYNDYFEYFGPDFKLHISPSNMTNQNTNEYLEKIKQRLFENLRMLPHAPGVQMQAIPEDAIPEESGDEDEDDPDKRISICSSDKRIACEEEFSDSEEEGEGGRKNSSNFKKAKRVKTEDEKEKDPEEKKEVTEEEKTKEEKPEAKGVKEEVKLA
Human HDAC2, sequence (Q92769 whole entry): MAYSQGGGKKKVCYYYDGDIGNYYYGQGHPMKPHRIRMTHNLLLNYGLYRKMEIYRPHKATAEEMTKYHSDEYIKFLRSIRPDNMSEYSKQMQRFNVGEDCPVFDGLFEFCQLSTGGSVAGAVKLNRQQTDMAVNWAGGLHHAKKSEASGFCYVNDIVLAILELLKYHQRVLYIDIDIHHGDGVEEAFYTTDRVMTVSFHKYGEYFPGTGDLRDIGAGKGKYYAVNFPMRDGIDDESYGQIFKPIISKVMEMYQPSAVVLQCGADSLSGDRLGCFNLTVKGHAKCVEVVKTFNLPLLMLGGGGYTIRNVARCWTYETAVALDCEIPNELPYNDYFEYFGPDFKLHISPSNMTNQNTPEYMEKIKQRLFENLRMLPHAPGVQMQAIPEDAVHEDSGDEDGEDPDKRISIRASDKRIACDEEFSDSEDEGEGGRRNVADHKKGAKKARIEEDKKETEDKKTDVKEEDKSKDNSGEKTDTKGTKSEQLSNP

For `O=C(NO)c1ccc(CNC(=O)c2[nH]c(-c3cccnc3)cc2-c2ccc(F)cc2)cc1` [Example 46, 3-(4-fluorophenyl)-N-{4-[(hydroxyamino)carbonyl]benzyl}-5-(3-pyridinyl)-1H-pyrrole-2-carboxamide], the IC50 in data set [1] amounted to 70 nM.

Regarding `Nc1ccccc1NC(=O)c1ccc(CNC(=O)c2[nH]c(-c3ccc(O)cc3)cc2-c2ccccc2)cc1` [Example 35, N-(4-{[(2-Aminophenyl)amino)carbonyl]benzyl}-5-(4-hydroxyphenyl)-3-phenyl-1H-pyrrole-2-carboxamide], the IC50 at Human HDAC2 is 433 nM; at Human HDAC3/NcoR2 it was 806 nM; on Human HDAC8 it was more than 5000 nM; at Human HDAC1 it was 108 nM; in data set [2], 4280 nM; on Human HDAC6 it was more than 5000 nM.

Turning to `Nc1ccccc1NC(=O)c1ccc(CNC(=O)c2[nH]c(-c3ccc(O)cc3)cc2-c2ccsc2)cc1` [Example 33, N-(4-{[(2-aminophenyl)amino)carbonyl]benzyl}-5-(4-hydroxyphenyl)-3-(3-thienyl)-1H-pyrrole-2-carboxamide], the IC50 on Human HDAC2 was 364 nM; at Human HDAC3/NcoR2, 732 nM; at Human HDAC8 it was more than 5000 nM; at Human HDAC1, 103 nM; in data set [2], 3270 nM; at Human HDAC6 it was more than 5000 nM.

As to `O=C(NO)c1ccc(CNC(=O)c2[nH]c(-c3cccs3)cc2-c2ccc(F)cc2)cc1` [Example 31, 3-(4-fluorophenyl)-N-{4-[(hydroxyamino)carbonyl]benzyl}-5-(2-thienyl)-1H-pyrrole-2-carboxamide], the IC50 in data set [1] was 49 nM; in data set [2], 58 nM.

Consider `O=C(NO)c1ccc(CNC(=O)c2[nH]c(-c3ccccc3)cc2-c2ccc(F)c(F)c2)cc1` [Example 42, 3-(3,4-difluorophenyl)-N-{4-[(hydroxyamino)carbonyl]benzyl}-5-phenyl-1H-pyrrole-2-carboxamide], for which, in data set [1], the IC50 is 129 nM.

In the case of `COc1ccc(-c2cc(-c3ccccc3)[nH]c2C(=O)NCc2ccc(C(=O)NCCS)cc2)cc1` [Example 23, 3-(4-methoxyphenyl)-5-phenyl-N-(4-{[(2-sulfanylethyl)amino]carbonyl}benzyl)-1H-pyrrole-2-carboxamide], the IC50 in data set [1] was more than 10000 nM.

`COc1ccc(-c2cc(-c3ccccc3)[nH]c2C(=O)NCc2ccc(C(=O)NO)cc2)cc1` [Example 38, N-{4-[(hydroxyamino)carbonyl]benzyl}-3-(4-methoxyphenyl)-5-phenyl-1H-pyrrole-2-carboxamide]: the IC50 in data set [1] worked out at 70 nM.

Take `O=C(NO)c1ccc(CNC(=O)c2[nH]c(-c3ccc(F)cc3)cc2-c2ccc(F)cc2)cc1` [Example 30, 3,5-bis-(4-fluorophenyl)-N-{4-[(hydroxyamino)carbonyl]benzyl}-1H-pyrrole-2-carboxamide]: the IC50 in data set [1] came out at 82 nM; in data set [2] it was 90 nM.

Turning to `O=C(NO)c1ccc(CNC(=O)c2[nH]c(-c3ccccc3)cc2-c2ccc(Cl)c(Cl)c2)cc1` [Example 44, 3-(3,4-dichlorophenyl)-N-{4-[(hydroxyamino)carbonyl]benzyl}-5-phenyl-1H-pyrrole-2-carboxamide], in data set [1], the IC50 was 153 nM.

Compound `COc1ccc(-c2cc(-c3ccccc3)[nH]c2C(=O)Nc2ccc(C(=O)NO)o2)cc1` [Example 16, N-{5-[(hydroxyamino)carbonyl]-2-furyl}-3-(4-methoxyphenyl)-5-phenyl-1H-pyrrole-2-carboxamide] yielded a melting point of 160 to 162 °C. The IC50 in data set [1] was more than 10000 nM.

On to `O=C(NO)c1ccc(CNC(=O)c2[nH]c(-c3ccccc3)cc2-c2ccc(F)cc2)cc1` [Example 29, 3-(4-fluorophenyl)-N-{4-[(hydroxyamino)carbonyl]benzyl}-5-phenyl-1H-pyrrole-2-carboxamide], for which the IC50 in data set [1] stood at 71 nM; in data set [2], 73 nM.

Consider `O=C(NO)c1ccc(CNC(=O)c2[nH]c(-c3cccs3)cc2-c2ccc(F)cc2)cn1` [Example 32, 3-(4-fluorophenyl)-N-{2-[(hydroxyamino)carbonyl]-5-pyridyl-methyl}-5-(2-thienyl)-1H-pyrrole-2-carboxamide], for which the IC50 in data set [2] was 390 nM.

Take `O=C(NO)c1ccc(CNC(=O)c2[nH]c(-c3ccccc3)cc2-c2cccc(Br)c2)cc1` [Example 45, 3-(3-bromophenyl)-N-{4-[(hydroxyamino)carbonyl]benzyl}-5-phenyl-1H-pyrrole-2-carboxamide]: the IC50 in data set [1] was 115 nM.

As to `O=C(NO)c1ccc(CNC(=O)c2[nH]c(-c3ccccc3)cc2-c2ccc(C(F)(F)F)cc2)cc1` [Example 39, N-{4-[(hydroxyamino)carbonyl]benzyl}-5-phenyl-3-(4-trifluoromethylphenyl)-1H-pyrrole-2-carboxamide], in data set [1], the IC50 was 170 nM.

For `COc1ccc(-c2cc(-c3ccccc3)[nH]c2C(=O)Nc2cccc(CC(=O)NO)c2)cc1` [Example 18, N-{3-[2-(hydroxyamino)-2-oxoethyl]phenyl}-3-(4-methoxyphenyl)-5-phenyl-1H-pyrrole-2-carboxamide], the melting point lay in the range of 205 to 206 °C. The half-inhibitory concentration (IC50) in data set [1] is more than 10000 nM.

As for `Cc1ccc(-c2cc(-c3ccc(F)cc3)c(C(=O)NCc3ccc(C(=O)NO)cc3)[nH]2)cc1` [Example 47, 3-(4-fluorophenyl)-N-{4-[(hydroxyamino)carbonyl]benzyl}-5-(4-methylphenyl)-1H-pyrrole-2-carboxamide], in data set [1], the IC50 came out at 108 nM.

Regarding `Nc1ccccc1NC(=O)c1ccc(CNC(=O)c2[nH]c(-c3ccsc3)cc2-c2ccc(O)cc2)cc1` [Example 36, N-(4-{[(2-aminophenyl)amino)carbonyl]benzyl}-3-(4-hydroxyphenyl)-5-(3-thienyl)-1H-pyrrole-2-carboxamide], the IC50 was 752 nM at Human HDAC2; 2070 nM at Human HDAC3/NcoR2; more than 5000 nM on Human HDAC8; 222 nM at Human HDAC1; 4080 nM in data set [2]; more than 5000 nM at Human HDAC6.

In turn, `O=C(NO)c1ccc(CNC(=O)c2[nH]c(-c3cccs3)cc2-c2ccc(F)cc2)nc1` [Example 11, 6-[({[3-(4-fluorophenyl)-5-(2-thienyl)-1H-pyrrol-2-yl]carbonyl}amino)methyl]-N-hydroxynicotinamide] came in with a melting point of 151 to 152 °C. On Human HDAC2, the IC50 worked out at 2530 nM. The IC50 on Human HDAC3/NcoR2 was found to be 754 nM. In addition, on Human HDAC8, the IC50 turned out to be 181 nM. Further, at Human HDAC1, the IC50 amounted to 744 nM. In addition, the IC50 in data set [2] is 68.3 nM.

Take `COc1ccc(-c2cc(-c3ccccc3)[nH]c2C(=O)NCc2ccc(C(=O)NO)cc2)cc1OC` [Example 41, N-{4-[(hydroxyamino)carbonyl]benzyl}-3-(3,4-dimethoxyphenyl)-5-phenyl-1H-pyrrole-2-carboxamide]: in data set [1], the IC50 was determined as 119 nM.

Regarding `O=C(NO)c1ccc(CNC(=O)c2[nH]c(-c3ccccc3)cc2-c2ccc([N+](=O)[O-])cc2)cc1` [Example 43, N-{4-[(hydroxyamino)carbonyl]benzyl}-3-(4-nitrophenyl)-5-phenyl-1H-pyrrole-2-carboxamide], the IC50 in data set [1] was found to be 62 nM.

`COc1ccc(-c2cc(-c3ccccc3)[nH]c2C(=O)Nc2ccc(C(=O)NO)cc2)cc1` [Example 19, N-{4-[(hydroxyamino)carbonyl]phenyl}-3-(4-methoxyphenyl)-5-phenyl-1H-pyrrole-2-carboxamide] yielded a melting point of 234 to 235 °C. In data set [1], the IC50 turned out to be 101 nM.

As for `O=C(NO)c1ccc(CNC(=O)c2[nH]c(-c3ccccc3)cc2-c2ccc(Br)cc2)cc1` [Example 40, 3-(4-bromophenyl)-N-{4-[(hydroxyamino)carbonyl]benzyl}-5-phenyl-1H-pyrrole-2-carboxamide], the IC50 in data set [1] was found to be 99 nM.

`Nc1ccccc1NC(=O)c1ccc(CNC(=O)c2[nH]c(-c3ccoc3)cc2-c2ccc(O)cc2)cc1` [Example 34, N-(4-{[(2-aminophenyl)amino)carbonyl]benzyl}-5-(3-furyl)-3-(4-hydroxyphenyl)-1H-pyrrole-2-carboxamide]: the IC50 at Human HDAC2 is 349 nM; at Human HDAC3/NcoR2 it was 770 nM; at Human HDAC8 it was more than 5000 nM; on Human HDAC1 it was 86 nM; in data set [2], 1540 nM; at Human HDAC6, 1260 nM.

Consider `COc1ccc(-c2cc(-c3ccccc3)[nH]c2C(=O)NCCCCCC(=O)NO)cc1` [Kendine 91, N-[6-(hydroxyamino)-6-oxohexyl]-3-(4-methoxyphenyl)-5-phenyl-1H-pyrrole-2-carboxamide, reference compound], for which the IC50 at Human HDAC2 stood at 1690 nM; on Human HDAC3/NcoR2 it was 613 nM; at Human HDAC8 it was 146 nM; on Human HDAC1 it was 508 nM; in data set [2] it was 43 nM; on Human HDAC6, 34.9 nM.

In turn, `O=C(NO)c1ccc(CNC(=O)c2[nH]c(-c3ccccc3)cc2-c2ccc(F)cc2)o1` [Example 17, 3-(4-fluorophenyl)-N-({5-[(hydroxyamino)carbonyl]-2-furyl}methyl)-5-phenyl-1H-pyrrole-2-carboxamide] displayed a melting point of 152 to 153 °C. In addition, the IC50 in data set [1] came to 9790 nM.
